Assay results published in PubChem BioAssay AID1745844 (Carcinogenic Potency Database (CPDB), 2022).
The source made the active and inactive calls. The rule behind the calls is not given here.

Test system: rodent lifetime carcinogenesis bioassay, tumor incidence TD50
Test: chronic cancer bioassays in animals – CPDB, compiled studies (AID 1745844)
Settings: in feed

With COc1ccc(C)cc1N the TD50 (mouse, strain B6C3F1, females, site: any site (literature study), lesion: several types, types named in the paper, dosed 97 weeks, study length 97 weeks) was 75 mg/kg/day, the TD50 (mouse, strain B6C3F1, females, site: liver + urinary bladder, lesion: hepatocellular adenoma + hepatocellular carcinoma + carcinoma, NOS + neoplasm, NOS, malignant + squamous-cell carc, dosed 97 weeks, study length 97 weeks) was 69 mg/kg/day and the TD50 (mouse, strain B6C3F1, females, site: liver, lesion: hepatocellular adenoma + hepatocellular carcinoma + neoplastic nodule, dosed 97 weeks, study length 97 weeks) was 301 mg/kg/day. For the same molecule, the TD50 (mouse, strain B6C3F1, females, site: liver, lesion: hepatocellular adenoma + hepatocellular carcinoma, dosed 97 weeks, study length 97 weeks) was 301 mg/kg/day, the TD50 (mouse, strain B6C3F1, females, site: liver, lesion: hepatocellular carcinoma, dosed 97 weeks, study length 97 weeks) was 315 mg/kg/day and the TD50 (mouse, strain B6C3F1, females, site: lung, lesion: alveolar/bronchiolar adenoma + alveolar/bronchiolar carcinoma, dosed 97 weeks, study length 97 weeks) was 3810 mg/kg/day. For the same molecule, the TD50 (mouse, strain B6C3F1, females, site: urinary bladder, lesion: carcinoma, NOS + neoplasm, NOS, malignant + squamous-cell carcinoma + transitional-cell carcinoma, dosed 97 weeks, study length 97 weeks) was 69 mg/kg/day, the TD50 (mouse, strain B6C3F1, females, site: urinary bladder, lesion: carcinoma, NOS + squamous-cell carcinoma + transitional-cell carcinoma, dosed 97 weeks, study length 97 weeks) was 70.1 mg/kg/day and the TD50 (mouse, strain B6C3F1, males, site: any site (literature study), lesion: several types, types named in the paper, dosed 97 weeks, study length 97 weeks) was 46.4 mg/kg/day. It also gave a TD50 (mouse, strain B6C3F1, males, site: liver, lesion: hepatocellular adenoma + hepatocellular carcinoma + neoplastic nodule, dosed 97 weeks, study length 97 weeks) of 255 mg/kg/day, a TD50 (mouse, strain B6C3F1, males, site: lung, lesion: alveolar/bronchiolar adenoma + alveolar/bronchiolar carcinoma, dosed 97 weeks, study length 97 weeks) of 1170 mg/kg/day and a TD50 (mouse, strain B6C3F1, males, site: urinary bladder, lesion: squamous-cell carcinoma + transitional-cell carcinoma, dosed 97 weeks, study length 97 weeks) of 44.7 mg/kg/day. It also gave a TD50 (rat, strain Fischer 344, females, site: adrenal gland, lesion: cortical adenoma, dosed 104 weeks, study length 105 weeks) of 1490 mg/kg/day, a TD50 (rat, strain Fischer 344, females, site: any site (literature study), lesion: several types, types named in the paper, dosed 104 weeks, study length 105 weeks) of 93.8 mg/kg/day and a TD50 (rat, strain Fischer 344, females, site: liver, lesion: hepatocellular adenoma + hepatocellular carcinoma + neoplastic nodule, dosed 104 weeks, study length 105 weeks) of 2180 mg/kg/day. It also gave a TD50 (rat, strain Fischer 344, females, site: nasal cavity + urinary bladder, lesion: olfactory neuroblastoma + neoplasm, NOS + papillary carcinoma + squamous-cell carcinoma + transitional-cell carcinoma, dosed 104 weeks, study length 105 weeks) of 110 mg/kg/day, a TD50 (rat, strain Fischer 344, females, site: nasal cavity, lesion: olfactory neuroblastoma, dosed 104 weeks, study length 105 weeks) of 1190 mg/kg/day and a TD50 (rat, strain Fischer 344, females, site: urinary bladder, lesion: neoplasm, NOS + papillary carcinoma + squamous-cell carcinoma + transitional-cell carcinoma, dosed 104 weeks, study length 105 weeks) of 110 mg/kg/day. For the same molecule, the TD50 (rat, strain Fischer 344, females, site: uterus, lesion: endometrial stromal polyp, dosed 104 weeks, study length 105 weeks) was 913 mg/kg/day, the TD50 (rat, strain Fischer 344, males, site: any site (literature study), lesion: several types, types named in the paper, dosed 104 weeks, study length 105 weeks) was 98 mg/kg/day and the TD50 (rat, strain Fischer 344, males, site: brain + brain stem, lesion: glioma, NOS, dosed 104 weeks, study length 105 weeks) was 3510 mg/kg/day. It also gave a TD50 (rat, strain Fischer 344, males, site: liver + nasal cavity + nasopharynx + urinary bladder, lesion: hepatocellular carcinoma + mixed hepato/cholangio carcinoma + neoplastic nodule + adenoma, NOS + carcinoma, NOS + neuroblastoma + ne, dosed 104 weeks, study length 105 weeks) of 76.3 mg/kg/day, a TD50 (rat, strain Fischer 344, males, site: liver, lesion: hepatocellular adenoma + hepatocellular carcinoma + neoplastic nodule, dosed 104 weeks, study length 105 weeks) of 443 mg/kg/day and a TD50 (rat, strain Fischer 344, males, site: liver, lesion: hepatocellular carcinoma + mixed hepato/cholangio carcinoma + neoplastic nodule, dosed 104 weeks, study length 105 weeks) of 406 mg/kg/day. For the same molecule, the TD50 (rat, strain Fischer 344, males, site: nasal cavity + nasopharynx, lesion: carcinoma, NOS + neoplasm, NOS, malignant + adenocarcinoma, NOS, dosed 104 weeks, study length 105 weeks) was 4620 mg/kg/day, the TD50 (rat, strain Fischer 344, males, site: nasal cavity, lesion: adenoma, NOS + carcinoma, NOS + neuroblastoma + neoplasm, NOS, malignant + olfactory neuroblastoma, dosed 104 weeks, study length 105 weeks) was 397 mg/kg/day and the TD50 (rat, strain Fischer 344, males, site: nasal cavity, lesion: neuroblastoma + olfactory neuroblastoma, dosed 104 weeks, study length 105 weeks) was 450 mg/kg/day. For the same molecule, the TD50 (rat, strain Fischer 344, males, site: testis, lesion: interstitial-cell tumor, dosed 104 weeks, study length 105 weeks) was 165 mg/kg/day and the TD50 (rat, strain Fischer 344, males, site: urinary bladder, lesion: papillary carcinoma + squamous-cell carcinoma + transitional-cell carcinoma + transitional-cell papilloma + undifferentiated car, dosed 104 weeks, study length 105 weeks) was 88.4 mg/kg/day.
CCCCNC(=O)NS(=O)(=O)c1ccc(C)cc1 was tested, and the TD50 (mouse, strain B6C3F1, females, site: any site (literature study), lesion: several types, types named in the paper, dosed 78 weeks, study length 103 weeks) was 24200 mg/kg/day (inactive), the carcinogen call (mouse, strain B6C3F1, males, site: any site (literature study), lesion: several types, types named in the paper, dosed 78 weeks, study length 102 weeks) was “negative (inactive)” and the carcinogen call (rat, strain Fischer 344, females, site: any site (literature study), lesion: several types, types named in the paper, dosed 78 weeks, study length 106 weeks) was “negative (inactive)”. The carcinogen call (rat, strain Fischer 344, males, site: any site (literature study), lesion: several types, types named in the paper, dosed 78 weeks, study length 106 weeks) was “negative (inactive)”.
